Laboratory results from patent US5338869A, “Hydroxyphenylpropionic ester having novel crystal structure” (Sumitomo Chemical Company, Limited, priority 1992, dated 1994).

Assays:
Assay type in all cases: physicochemical
[1] = Angle of spatula of crystals
[2] = Angle of repose of crystals
[3] = Bulk specific gravity (packed state)
[4] = Hygroscopicity: moisture content after exposure to 100% relative humidity (Karl Fischer method); conditions: for Hygroscopicity (Water content in % by weight): room temperature, relative humidity 100%
Text: Consequently, the crystals can be used conveniently and advantageously with no additional treatment, such as re-drying and moisture-proof packing, even in such uses as the production of polyurethane, which is susceptible to the influence of moisture.

[5] = Solubility in organic solvents at 20° C.

Angle of Spatula [1]	Angle of Repose [2]	Bulk Specific Gravity [3]	Hygroscopicity (Water content in % by weight) ([4]; exposure period 0 Days)	Hygroscopicity (Water content in % by weight) ([4]; exposure period 1 Day)	Hygroscopicity (Water content in % by weight) ([4]; exposure period 50 Days)	Hygroscopicity (Water content in % by weight) ([4]; exposure period 100 Days)	Solubility at 20° C. ([5]; Cyclohexane)	Solubility at 20° C. ([5]; Methanol)	Solubility at 20° C. ([5]; Toluene)	Structure (SMILES)	hygroscopicity (in words) ([4]; compared with the prior αβ- and δ-crystals)	solubility in organic solvents (in words) ([5]; compared with the δ-crystals and the αβ-crystals)
57 °	45 °	0.59								Cc1cc(CCC(=O)OCC(C)(C)C2OCC3(CO2)COC(C(C)(C)COC(=O)CCc2cc(C)c(O)c(C(C)(C)C)c2)OC3)cc(C(C)(C)C)c1O (stereo not shown) [Example 1, 3,9-bis[2-{3-(3-t-butyl-4-hydroxy-5-methylphenyl)propionyloxy}-1,1-dimethylethyl]-2,4,8,10-tetraoxaspiro[5,5]undecane]		
65 °	50 °	0.43								Cc1cc(CCC(=O)OCC(C)(C)C2OCC3(CO2)COC(C(C)(C)COC(=O)CCc2cc(C)c(O)c(C(C)(C)C)c2)OC3)cc(C(C)(C)C)c1O (stereo not shown) [Comparative Example 1, 3,9-bis[2-{3-(3-t-butyl-4-hydroxy-5-methylphenyl)propionyloxy}-1,1-dimethylethyl]-2,4,8,10-tetraoxaspiro[5.5]undecane, reference compound]		
58 °	47 °	0.66								Cc1cc(CCC(=O)OCC(C)(C)C2OCC3(CO2)COC(C(C)(C)COC(=O)CCc2cc(C)c(O)c(C(C)(C)C)c2)OC3)cc(C(C)(C)C)c1O (stereo not shown) [Example 3, 3,9-bis[2-{3-(3-t-butyl-4-hydroxy-5-methylphenyl)propionyloxy}-1,1-dimethylethyl]-2,4,8,10-tetraoxaspiro[5.5]undecane]		
58 °	45 °	0.60								Cc1cc(CCC(=O)OCC(C)(C)C2OCC3(CO2)COC(C(C)(C)COC(=O)CCc2cc(C)c(O)c(C(C)(C)C)c2)OC3)cc(C(C)(C)C)c1O (stereo not shown) [Example 2, 3,9-bis[2-{3-(3-t-butyl-4-hydroxy-5-methylphenyl)propionyloxy}-1,1-dimethylethyl]-2,4,8,10-tetraoxaspiro[5.5]undecane]		
			0.04 % by weight	0.06 % by weight	0.05 % by weight	0.05 % by weight	0.02 g/100 g solvent	4 g/100 g solvent	9 g/100 g solvent	Cc1cc(CCC(=O)OCC(C)(C)C2OCC3(CO2)COC(C(C)(C)COC(=O)CCc2cc(C)c(O)c(C(C)(C)C)c2)OC3)cc(C(C)(C)C)c1O (stereo not shown) [ε-Crystal, 3,9-bis[2-{3-(3-t-butyl-4-hydroxy-5-methylphenyl)propionyloxy}-1,1-dimethylethyl]-2,4,8,10-tetraoxaspiro[5.5]undecane]	smaller in hygroscopicity than the prior αβ- and δ-crystals	lower solubility in organic solvents than the δ-crystals and the αβ-crystals
			0.10 % by weight	0.47 % by weight	0.50 % by weight	0.45 % by weight	0.06 g/100 g solvent	9 g/100 g solvent	15 g/100 g solvent	Cc1cc(CCC(=O)OCC(C)(C)C2OCC3(CO2)COC(C(C)(C)COC(=O)CCc2cc(C)c(O)c(C(C)(C)C)c2)OC3)cc(C(C)(C)C)c1O (stereo not shown) [δ-Crystal, 3,9-bis[2-{3-(3-t-butyl-4-hydroxy-5-methylphenyl)propionyloxy}-1,1-dimethylethyl]-2,4,8,10-tetraoxaspiro[5.5]undecane, reference compound]		
74 °	53 °	0.40								Cc1cc(CCC(=O)OCC(C)(C)C2OCC3(CO2)COC(C(C)(C)COC(=O)CCc2cc(C)c(O)c(C(C)(C)C)c2)OC3)cc(C(C)(C)C)c1O (stereo not shown) [Comparative Example 2, 3,9-bis[2-{3-(3-t-butyl-4-hydroxy-5-methylphenyl)propionyloxy}-1,1-dimethylethyl]-2,4,8,10-tetraoxaspiro[5.5]undecane, reference compound]		
